Assay results reported in ChEMBL document CHEMBL2086263, “Synthesis and SAR studies of 3-allyl-4-prenyloxyaniline amides as potent 15-lipoxygenase inhibitors” (Bioorg Med Chem, 2012).

Tests used:
[1] = Inhibition of soybean 15-lipoxygenase using linoleic acid as substrate incubated for 5 mins prior to substrate addition measured after 7 mins by DMAB-MBTH method; parameters: species or system Glycine max
[2] = test system: Radical scavenging activity; assay: Antioxidant activity assessed as inhibition of DPPH radical scavenging activity after 30 mins by spectrophotometry; format: functional

Row | Compound | IC50 [1] | IC50 [2]
1 | C=CCc1cc(NC(=O)C23CC4CC(CC(C4)C2)C3)ccc1OC/C=C(\C)CC/C=C(\C)CCC=C(C)C | 0.69 µM | 114 µM
2 | C=CCc1cc(NC(=O)C2CCC2)ccc1OC/C=C(\C)CC/C=C(\C)CCC=C(C)C | 2.1 µM | 140 µM
3 | C=CCc1cc(NC(=O)C2CC2)ccc1OC/C=C(\C)CC/C=C(\C)CCC=C(C)C | 16.5 µM | 8.9 µM
4 | C=CCc1cc(NC(C)=O)ccc1OC/C=C(\C)CC/C=C(\C)CCC=C(C)C | 24.8 µM | 225 µM
5 | C=CCc1cc(NC(=O)C23CC4CC(CC(C4)C2)C3)ccc1OC/C=C(\C)CCC=C(C)C | 3.6 µM | 121 µM
6 | C=CCc1cc(NC(=O)C23CC4CC(CC(C4)C2)C3)ccc1OCC=C(C)C | 10.3 µM | 105 µM
7 | Cc1nc(N2CCN(C)CC2)nc2c1Nc1ccccc1S2 | 28.2 µM | –
8 | C=CCOc1ccc(NC(=O)C23CC4CC(CC(C4)C2)C3)cc1 | 27.8 µM | –
9 | O=C(O)/C=C/c1ccc(O)c(O)c1 [CAFFEIC ACID] | 37.1 µM | –
10 | CC(Cc1ccc(O)c(O)c1)C(C)Cc1ccc(O)c(O)c1 (stereo unspecified) [NORDIHYDROGUAIARETIC ACID] | – | 6.2 µM

More lines, now with the values ahead:

Row | IC50 [1] | IC50 [2] | Compound
11 | 9.8 µM | – | C=CCOc1ccc(NC(=O)C23CC4CC(CC(C4)C2)C3)cc1CC=C
12 | 18.5 µM | – | C=CCOc1ccc(NC(=O)C2CCCCC2)cc1CC=C
13 | 58 µM | – | C=CCOc1ccc(NC(=O)C2CCCC2)cc1CC=C
14 | 19.6 µM | – | C=CCOc1ccc(NC(=O)C2CCC2)cc1CC=C
15 | 54.1 µM | – | C=CCOc1ccc(NC(=O)C2CC2)cc1CC=C
16 | 67.8 µM | – | C=CCOc1ccc(NC(C)=O)cc1CC=C
17 | 5.2 µM | 529 µM | C=CCc1cc(NC(=O)C2CCCCC2)ccc1OC/C=C(\C)CC/C=C(\C)CCC=C(C)C
18 | 35.7 µM | 461 µM | C=CCc1cc(NC(=O)C2CCCC2)ccc1OC/C=C(\C)CC/C=C(\C)CCC=C(C)C
